From US20060008891A1, “Cathepsin G-related peptides as modulators of formylpeptide receptors (FPR)” (The Government of USA as repersented by the Secretary, …, priority 2004, published 2006)
Where “and” joins values, the source holds several entries; their conditions need not be identical. Identical values can stand only once.

Experiments:
monocytes = assay: Chemotaxis assay, monocytes; format: cell-based, human
Method: Human PBMC were isolated from leukopacks obtained through the courtesy of Transfusion Medicine Department, National Institutes of Health Clinical Center (Bethesda, Md.) by Ficoll-Hypaque density gradient centrifugation. Monocytes were purified from human PBMC by Percoll gradient to yield>90% pure preparations. […] H. Ali and R. Snyderman, Duke University (Durham, N.C.) and maintained in the presence of 0.8 mg/ml geneticin (G418, Life Technologies, Rockville, Md.) in DMEM supplemented with 10% FCS. B. Chemotaxis assay Migration of phagocytes and ETFR cells was assessed using a 48-well microchemotaxis chamber (Neuroprobe, Cabin John, Md.) as previously described (Hu et al. (2001) J Leukoc Biol 70 15512). Briefly, different concentrations of stimulants were placed in the wells of the lower compartment of the chamber, and 50 μl cells (1.5×10^6 cells/ml for monocyte and neutrophil, 1×10^6 ETFR cells/ml) were added to the wells of the upper compartment. The lower and upper compartments were separated by either a 5-μm (for monocyte) or a 10-μm pore size, collagen-coated (for ETFR cells) polycarbonate filter (Osmonics, Livermore, Calif.). After incubation at 37° C. in humidified air with 5% CO2 (60 min for neutrophils, 90 min for monocytes, 4.5 h for ETFR cells), the filter was removed and stained, and the cells migrating across the filter were counted with light microscopy. The results are presented as the mean number of cells (±SD) in three high power fields (HPFs). […] After thorough washing with cold medium (RPMI 1640, 1% BSA), the cells were resuspended and assayed. To measure the effect of various signaling inhibitors, unless otherwise indicated, the cells were pre-incubated at 37° C. for 60 min with the inhibitors, and were then added to the upper wells of the chemotaxis chamber.

PKCα/β = PKCα/β translocation in ETFR cells; format: cell-based, rat; details: 100 nM fMLF, 10 μg/ml CaG or PMA 500 nM, 37° C. 10 min
Method: ETFR cells were seeded on coverslips and cultured overnight in DMEM containing 1% FCS at 37° C. After further culture in FCS-free DMEM for 3 h, cells were treated with stimulants for indicated time periods at 37° C. and were then fixed in 4% paraformaldehyde for 5 min at room temperature. The cells were permeabilized with 0.2% Tween 20 for 30 min at 4° C. and the reaction was blocked with 5% goat normal serum for 15 min at room temperature. The rabbit anti-PKCα/β, δ, and ξ, antibodies (1:1000 in DPBS) were applied separately for 1 h at room temperature. After three rinses with DPBS, the cells were stained with FITC-labeled goat anti-rabbit secondary antibody (PharMingen, 1:1000 in DPBS) for 1 h at room temperature. The coverslips were mounted with an anti-fade, water-based mounting medium with Propidium Iodide (PI) (Vector Lab, Burlingamem, Calif.) and analyzed under a laser scanning confocal fluorescence microscope (Zeiss LSM510 NLO Meta, Jena, Germany). Excitation wavelengths 488 (for FITC) and 568 (for PI) nm were used to generate fluorescence emission in green and red, respectively.

p38 MAPK = assay: Phosphorylation of p38 MAPK in ETFR cells (Western blot); format: cell-based, rat
Method: (§1) ETFR cells were plated in Petri dishes and cultured in DMEM at 37° C. in humidified 5% CO2 atmosphere for 48 h. After further culture in serum-free DMEM overnight, the cells were treated with stimulants for indicated time periods. The reaction was stopped by adding 1 ml ice-cold PBS, and the cells were lysed in 1×SDS lysis buffer (62.5 mM Tris-HCl, 2% w/v SDS, 10% glycerol, 50 mM DTT, pH 6.8) and harvested into tubes for sonication. Proteins (50 μg for each sample) were resolved by SDS-PAGE and transferred onto nitrocellulose membranes (Bio-Rad, Hercules, Calif.). The membranes were blocked for 2 h at room temperature in 3% non-fat milk prepared in Tris-buffered saline-T (10 mM Tris-HCl, pH 7.5, 150 mM NaCl, 0.1% Tween 20) and probed with anti-p-ERK1/2, p-p38 MAPK, or p-Akt (1:1000) at room temperature for 1-2 h or at 4° C. overnight. The membranes were then washed and incubated with horseradish peroxidase-conjugated secondary antibodies diluted in Tris-buffered saline-T for 1 h at room temperature. The immune complexes on the membranes were visualized using ECL reagents. Total ERK1/2, p38 MAPK, and Akt were visualized by stripping the same membrane and probing with antibodies against total ERK1/2, p38 MAPK, and Akt.

ERK1/2 = assay: Phosphorylation of ERK1/2 in ETFR cells (Western blot); format: cell-based, rat
Method: as §1

FPR = target: T1, FPR (Homo sapiens, UniProt P21462); assay: FPR internalization (confocal microscopy), ETFR cells; format: cell-based; details: 30 min 37° C.
T1 construct: expressed in transfected cells; host or cells: Rat basophilic leukemia (RBL) cells, stably transfected (ETFR cells); gift of H. Ali and R. Snyderman, Duke University
T1 sequence (P21462 1-350): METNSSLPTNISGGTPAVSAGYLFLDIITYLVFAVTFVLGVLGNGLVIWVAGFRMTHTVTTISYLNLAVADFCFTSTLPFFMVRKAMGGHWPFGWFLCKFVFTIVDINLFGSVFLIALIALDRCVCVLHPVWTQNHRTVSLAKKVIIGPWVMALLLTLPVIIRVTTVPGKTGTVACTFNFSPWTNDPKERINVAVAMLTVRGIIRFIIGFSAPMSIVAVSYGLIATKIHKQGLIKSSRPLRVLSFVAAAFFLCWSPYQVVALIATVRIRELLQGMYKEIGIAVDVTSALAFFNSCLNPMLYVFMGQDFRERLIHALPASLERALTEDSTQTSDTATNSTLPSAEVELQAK
Method: For detection of FPR internalization, ETFR cells were seeded on coverslips and cultured overnight in DMEM containing 10% FCS at 37° C. After pretreatment with medium or stimulants for 30 minutes at 37° C., the cells were fixed in 0.25% paraformaldehyde for 15 min at 4° C. The cells were then permeabilized with 0.2% Tween 20 for 30 min at 4° C., followed by incubation with a monoclonal anti-human FPR antibody or isotype matched IgG for 30 min at 4° C. After three washes with 0.1% Tween 20 in DPBS, a FITC-labeled rat anti-mouse antibody (PharMingen) was applied to the cells for 30 min at 4° C. The coverslips were covered with DAPI, then mounted with an anti-fade, water-based mounting medium and analyzed under a laser scanning Zeiss LSM410 fluorescence confocal microscope.

## CaG: Cathepsin G, serine protease purified from neutrophil granules, purchased from Athens Research & Technology
monocytes; human monocytes
  concentration of maximal activity in monocyte migration: 5 μg/ml and 200 nM
  monocyte migration induced by stimulant: dose-dependently induced monocyte migration
monocytes; monocytes
  concentration range potently chemotactic: 4 to 400 nM
monocytes; preincubated with CaG 10 μg/ml 30 min 37° C., low concentrations of fMLF
  attenuation of monocyte chemotaxis to fMLF after preincubation: able to attenuate monocyte chemotaxis to low concentrations of fMLF
PKCα/β
  translocation of PKCα/β: did not induce translocation of PKCα and β
p38 MAPK
  time to activation of p38 MAPK: 1 to 5 min
ERK1/2; ETFR cells
  time to activation of ERK1/2: 1 to 5 min
ERK1/2; FPR transfected cells
  delay to reach maximal activity (MAPK phosphorylation) as compared with fMLF: 10 to 15 min
FPR
  FPR internalization: significantly and dose-dependently induced FPR internalization
